Test results reported in US8232059B2, “Method of identifying A. baumannii with OXA-131-like drug resistance in diabetic patients” (priority 2010, dated 2012).
Values after ≈ are worked out from the molar mass of the structure shown.

System: A. baumannii isolates
Assay: MICs (minimum inhibitory concentrations) for susceptibility to known antibiotics, British Society for Antimicrobial Chemotherapy guidelines
Type: cell-based, Acinetobacter baumannii
Settings: 20 clinical isolates from diabetic patients; for MIC: Acinetobacter baumannii
Text: All twenty isolates were further tested for MICs (minimum inhibitory concentrations) for susceptibility to several known antibiotics using the British Society for Antimicrobial Chemotherapy guidelines.

| Compound | % resistance [%] | No. of resistant isolates | susceptibility/resistance of the isolates in words | MIC [µg/mL] | MIC range [µg/mL] |
| --- | --- | --- | --- | --- | --- |
| CC1(C)S[C@@H]2[C@H](NC(=O)[C@H](N)c3ccccc3)C(=O)N2[C@H]1C(=O)O [Ampicillin] | 100 | 20 | highly resistant |  |  |
| O=C(N[C@H](CO)[C@H](O)c1ccc([N+](=O)[O-])cc1)C(Cl)Cl [Chloramphenicol] | 100 | 20 | highly resistant | > 128 |  |
| C[C@@H](O)[C@H]1C(=O)N2C(C(=O)O)=C(S[C@@H]3CN[C@H](C(=O)Nc4cccc(C(=O)O)c4)C3)[C@H](C)[C@H]12 [Ertapenem] | 100 | 20 | highly resistant | 4 to 64 (≈ 8.41 to 135 µM) |  |
| C[C@@H](O)[C@H]1C(=O)N2C(C(=O)O)=C(SCCN=CN)C[C@H]12 [Imipenem] | 0 | 0 |  | 0.25 to 2 (≈ 0.835 to 6.68 µM) |  |
| C[C@@H](O)[C@H]1C(=O)N2C(C(=O)O)=C(S[C@@H]3CN[C@H](C(=O)N(C)C)C3)[C@H](C)[C@H]12 [Meropenem] | 20 | 4 | all but four isolates (which had low-level resistance) were susceptible | 4 to 8 (≈ 10.4 to 20.9 µM) |  |
| CCn1cc(C(=O)O)c(=O)c2ccc(C)nc21 [Nalidixic Acid] | 75 | 15 | majority was also resistant |  |  |
| CC1COc2c(N3CCN(C)CC3)c(F)cc3c(=O)c(C(=O)O)cn1c23 (stereo not shown) [Ofloxacin] | 70 | 14 |  | 1 to 32 (≈ 2.77 to 88.6 µM) |  |
| Cc1onc(-c2ccccc2)c1C(=O)N[C@@H]1C(=O)N2[C@@H]1SC(C)(C)[C@@H]2C(=O)O [Oxacillin] | 100 | 20 | highly resistant | > 128 |  |
| CO[C@H]1/C=C/O[C@@]2(C)Oc3c(C)c(O)c4c(O)c(c(/C=N/N5CCN(C)CC5)c(O)c4c3C2=O)NC(=O)/C(C)=C\C=C\[C@H](C)[C@H](O)[C@@H](C)[C@@H](O)[C@@H](C)[C@H](OC(C)=O)[C@@H]1C [Rifampicin] | 80 | 16 |  | 4 to 32 (≈ 4.86 to 38.9 µM) |  |
| CC1(C)[C@H](C(=O)O)N2C(=O)C[C@H]2S1(=O)=O [Sulbactam] | 100 | 20 | highly resistant |  |  |
| CN(C)[C@@H]1C(O)=C(C(N)=O)C(=O)[C@@]2(O)C(O)=C3C(=O)c4c(O)cccc4[C@@](C)(O)[C@H]3C[C@@H]12 [Tetracycline] | 100 | 20 |  |  |  |
| Colistin | 0 | 0 | susceptible |  | 0.25 to 0.5 |
| Gentamicin | 20 | 4 | majority was also resistant |  |  |
